Assays:
[1] = tested on: γ-H2A.X foci in U-2 OS IndDR-GFP cells; assay: γ-H2A.X foci formation (immunofluorescence); type: cell-based, human; settings: indicated concentrations, cisplatin-treated cells
Protocol: U-2 OS IndDR-GFP cells were seeded into 8-well polystyrene vessel culture slides at 5 × 10^4 cells/well. The next day, cells were pretreated with B02-iso or 0.1% DMSO (for control cells) for 1 h, followed by the treatment with 5 µM cisplatin for 4 h or left untreated (for control cells). After 4 h of incubation, cells were placed on ice, washed with PBS buffer (twice, 5 min each), pretreated with 0.5% Triton X-100 for 5 min, washed with PBS (twice, 5 min each). Cells were removed from ice and fixed with 4% methanol-free formaldehyde (Pierce; Waltham, […], USA) in PBS for 10 min. Cells were washed with PBS (twice, 5 min each), placed on ice, and permeabilized with 1% Triton X-100 in PBS for 10 min. Cells were removed from ice, washed with PBS (once, 5 min), blocked with a blocking buffer (5% BSA (Bovine Serum Albumin) in PBS) for 30 min, and incubated with rabbit polyclonal RAD51 antibody (1:1000, GeneTex, GTX100469) and mouse monoclonal anti-phospho-histone H2A.X (Ser 139) antibody (1:20,000, clone JBW301, Millipore 05-636) in blocking buffer, containing 0.3% Triton X-100 overnight at 4 °C. […] For foci quantification, 50 cells were chosen for each treatment condition at random, and foci number was counted using ImageJ software. […]

HsRAD51 = target: T1, HsRAD51 (Homo sapiens, UniProt Q06609); assay: Surface plasmon resonance (SPR) binding to immobilized RAD51; settings: 25 °C, equilibrium analysis, ± SD, read-out: KD, equilibrium dissociation constant of direct binding to hRAD51
T1 sequence (Q06609 1-339): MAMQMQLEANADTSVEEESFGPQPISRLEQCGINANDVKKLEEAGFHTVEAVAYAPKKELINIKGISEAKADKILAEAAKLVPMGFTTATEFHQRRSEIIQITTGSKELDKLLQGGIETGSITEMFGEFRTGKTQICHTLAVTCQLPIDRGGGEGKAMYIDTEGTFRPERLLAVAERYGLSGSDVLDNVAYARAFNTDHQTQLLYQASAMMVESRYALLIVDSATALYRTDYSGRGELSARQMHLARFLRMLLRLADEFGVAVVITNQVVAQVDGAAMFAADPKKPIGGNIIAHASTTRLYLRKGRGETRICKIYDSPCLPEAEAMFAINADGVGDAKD
Protocol: The binding of RAD51i to RAD51 was examined using a ProteOn XPR36 SPR Protein Interaction Array System (Bio-Rad, Hercules, CA, USA) at 25 °C. ProteOn GLH sensor chips were preconditioned with two 10 s pulses of 50 mM NaOH, 100 mM HCl, and 0.5% SDS followed by the system equilibration with the running buffer (20 mM sodium phosphate, 150 mM NaCl, and 0.005% Tween 20, pH 7.4). The surface of a GLH sensorchip was subsequently activated with a 1:100 dilution of a 1:1 mixture of 0.2 M EDC and 0.05 M Sulfo-NHS. Purified HsRAD51 was diluted to 500 µg/mL in 10 mM sodium acetate, pH 5.5, and injected immediately after chip activation across the ligand flow channels at 30 µL/min for 5 min. Unreacted protein was washed out, and the excess of unreacted ester groups on the sensor surface was capped by an injection of 1 M ethanolamine-HCl, pH 8.0, at 5 µL/min for 5 min. A reference surface to correct for nonspecific binding was similarly created by immobilizing an IgG b12 anti-HIV-1 gp120 antibody (IgG b12 anti-HIV-1 gp120; was obtained through the NIH AIDS Reagent Program, Division of AIDS, NIAID, NIH: Anti-HIV-1 gp120 Monoclonal (IgG1 b12) from Drs. Dennis Burton and Carlos Barbas). Serial dilutions of the compounds were prepared in the running buffer supplemented with 8% DMSO and injected at a flow rate of 100 μL/min for a 1 min association phase, followed by a 5 min dissociation phase using the “one-shot kinetics” functionality of the ProteOn instrument. Data were analyzed with ProteOn Manager Software version 3.0 (Bio-Rad; Hercules, CA, USA). The responses from the reference flow cell were subtracted to account for the non-specific binding and injection artifacts. Experiments were repeated at least three times. The equilibrium dissociation constants (KD) for the interactions were calculated in ProteOn Manager Version 3.1.0.6 (Bio-Rad; Hercules, CA, USA) using the equilibrium analysis function.

MDA-MB-231 cells = assay: EdU cell proliferation assay, MDA-MB-231; type: cell-based, human; settings: 24 h
Protocol: Exponentially growing MDA-MB-231 and MCF 10A cells were seeded into 6-well plates at a density of 1.5 × 10^5 cells/well in the presence of indicated concentrations of B02-iso or 0.1% DMSO (for control cells). After 24 h of incubation, cells were labeled with 10 µM Edu (Invitrogen; Waltham, […], USA) for 1 h or left unlabeled in the control. Cells were harvested and centrifuged at 500× g, 4 °C for 5 min, and cell pellets were washed with PBS supplemented with 1% BSA, spun down, and fixed with 4% methanol-free formaldehyde (Pierce) in PBS for 15 min. Cells were washed with PBS containing 1% BSA, centrifuged 500× g for 5 min. Cell pellets were resuspended in PBS containing 0.1% Triton X-100 and incubated for 15 min for permeabilization. Cells were spun down, resuspended in freshly prepared Edu click labeling solution (1 mM CuSO4, 1.25 µM Alexa Fluor 488 Azide (Invitrogen; Waltham, […], USA), 50 mM ascorbic acid in PBS) and incubated for 30 min in the dark. Cells were washed twice with PBS containing 0.1% Triton X-100, resuspended in the same buffer, and analyzed for Edu incorporation by flow cytometry using the Guava easyCyte system (Millipore; Burlington, VT, USA) with the InCyte software (Millipore; Burlington, VT, USA).

O=c1nc(/C=C/c2cccnc2)n(Cc2ccccc2)c2ccccc12 [B02-iso]
Level of γ-H2A.X foci [1]: did not reduce the level of γ-H2A.X foci
Kd (HsRAD51): 14.6 ± 6.2 µM
Fraction of DNA-replicating cells (EdU) (MDA-MB-231 cells; MDA-MB-231, 4 µM): remained unchanged
Reduction of fraction of DNA-replicating cells (EdU) (MDA-MB-231 cells; MDA-MB-231, 8 µM): approximately 20%

— article PMC8235719, “New RAD51 Inhibitors to Target Homologous Recombination in Human Cells” (Genes, 2021)
